Data on five compounds can be found in patent publication US20210263122A1, “RATIOMETRIC PULSED CEST IMAGING” (BRACCO IMAGING S.P.A., priority 2015, published 2021).

The structures appear in SMILES notation.

Series [1] in a line: Chemical exchange rate (kex) of amide protons from 1H-NMR linewidth. It is filed as physicochemical. The method, then:
High-resolution 1H-NMR spectra were recorded on a Bruker Avance 600 spectrometer (Bruker BioSpin Rheinstetten, Germany) operating at 14 T (corresponding to a proton Larmor frequency of 600.13 MHz) equipped with a Z-gradient 5 mm inverse probe. Sample temperature control was monitored within +/−0.1 K by means of the BTO2000 variable temperature unit. 1H NMR spectra to measure the linewidth of exchangeable protons were obtained by means of a pulse sequence using water suppression by excitation sculpting with gradients (T. L. Hwang, A. J. Shaka Water Suppression That Works. Excitation Sculpting Using Arbitrary Wave-Forms and Pulsed-Field Gradients, J. Magn. Reson. Ser. A, 1995, 112(3), 275-279). The carrier frequency was carefully set on resonance to the water signal. Simple “excite-detect” acquisitions (typical parameters: 16 ppm spectral window, 32 k complex data points, 3 s relaxation delay, and 64 averaged FIDs) were carried out to measure the linewidths of the exchangeable amide protons at 310 K. In vitro studies were performed by preparing 30 mM solutions of Iodixanol in aqueous phosphate buffer solution (10 mM), with the pH adjusted within the 5.5-7.4 range by addition of aliquots of HCl/NaOH. Capillaries containing the solutions were transferred into a 5 mm NMR tube filled with D2O for field-frequency lock.
Exchange rate values analogously assessed in the pH range of from 5.4 to 7.9 for some radiographic contrast agents according to the invention are provided in the following Table 3.

For series [2] the following is noted: 7.05 T, 310 K, pH 7.4; cited from earlier work.

Consider `O=C(NCC(O)CO)c1c(I)c(C(=O)NCC(O)CO)c(I)c(N(CCO)C(=O)CO)c1I` (stereo not drawn) [Ioversol], for which the Kex in series [1] (pH 5.5, 310K) stood at 22 s⁻¹; in series [1] (pH 6.0, 310K), 66 s⁻¹; in series [1] (pH 6.3, 310K), 118 s⁻¹; in series [1] (pH 6.7, 310K), 292 s⁻¹; in series [1] (pH 7.0, 310K), 913 s⁻¹; in series [1] (pH 7.4, 310K) it was 1628 s⁻¹. This compound showed a Kex in series [1] (pH 7.9, 310K) of 3660 s⁻¹.

Consider `C[C@H](O)C(=O)Nc1c(I)c(C(=O)NC(CO)CO)c(I)c(C(=O)NC(CO)CO)c1I` [Iopamidol], for which the “averaged Kex exchange rate of amide mobile protons” value in series [2] is listed as “about 2560 s^−1”.

As for `CC(=O)N(CC(O)CN(C(C)=O)c1c(I)c(C(=O)NCC(O)CO)c(I)c(C(=O)NCC(O)CO)c1I)c1c(I)c(C(=O)NCC(O)CO)c(I)c(C(=O)NCC(O)CO)c1I` (stereo not drawn) [Iodixanol], the Kex in series [1] (pH 5.5, 310K) turned out to be 32 s⁻¹; in series [1] (pH 6.0, 310K) it was 51 s⁻¹; in series [1] (pH 6.3, 310K), 80 s⁻¹; in series [1] (pH 6.7, 310K), 179 s⁻¹; in series [1] (pH 7.0, 310K) it was 476 s⁻¹; in series [1] (pH 7.4, 310K) it was 1213 s⁻¹. Also, the Kex in series [1] (pH 7.9, 310K) is 1332 s⁻¹; in series [1] (physiological conditions, Example 1), “exceeds 200 Hz”.

On to `CN(C(=O)CO)c1c(I)c(C(=O)NCC(O)CO)c(I)c(C(=O)NCC(O)CO)c1I` (stereo not drawn) [Iomeprol], for which the Kex in series [1] (pH 5.5, 310K) was determined as 30 s⁻¹; in series [1] (pH 6.0, 310K), 88 s⁻¹; in series [1] (pH 6.3, 310K) it was 164 s⁻¹; in series [1] (pH 6.7, 310K) it was 430 s⁻¹; in series [1] (pH 7.0, 310K), 794 s⁻¹; in series [1] (pH 7.4, 310K), 1831 s⁻¹. Moreover, in series [1] (pH 7.9, 310K), the Kex came to 4389 s⁻¹.

Regarding `CC(=O)N(CC(O)CO)c1c(I)c(C(=O)NCC(O)CO)c(I)c(C(=O)NCC(O)CO)c1I` (stereo not drawn) [Iohexol], the Kex in series [1] (pH 5.5, 310K) is 22 s⁻¹; in series [1] (pH 6.0, 310K), 69 s⁻¹; in series [1] (pH 6.3, 310K), 139 s⁻¹; in series [1] (pH 6.7, 310K), 372 s⁻¹; in series [1] (pH 7.0, 310K) it was 923 s⁻¹; in series [1] (pH 7.4, 310K), 1609 s⁻¹. The same compound returned a Kex in series [1] (pH 7.9, 310K) of 4056 s⁻¹.
